# “Also recorded” adds a separate entry of the source.
# Legend:
# [1] = system: TDP-43 or FUS-silenced human immortalized myoblasts (cell line 8220); experiment: Myogenic differentiation (MYHC-positive myotubes, differentiation index) of silenced myoblasts; type: cell-based; conditions: 30 nM
# From the text: We then studied the effect of gene silencing on the myogenic process. Myogenesis was first induced by an established protocol consisting on medium replacement, in which myoblasts were exposed to differentiation medium two days after infection with lentiviral particles. However, TDP-43 and FUS knockdown myoblasts were not able to survive to the differentiating challenge. Then, we switched to a more physiologically-relevant myogenic scenario that consists on allowing spontaneous differentiation and fusion when myoblasts reach 100% confluence. Lentiviral particles of scramble shRNA, shTDP-43 or shFUS were added to the medium when […] myoblasts were at 30-40% confluence (FIG. 1D).
# Myoblasts treated with control shRNA differentiated and formed MYHC-positive myotubes 2 days after reaching 100% confluence (FIG. 1I). However, TDP-43 and FUS knockdown affected the natural capacity of cultured myoblasts to fuse and form myotubes: shTDP-43-treated myoblasts remained undifferentiated for at least 2 days after reaching 100% confluence, and shFUS-treated myoblasts formed fewer myotubes (FIG. 1I). […] We then analyzed levels of MYOD and MYOG (Myogenin), two transcription factors that are required for myoblast commitment, differentiation and fusion, respectively.
# We next explored the consequences of pharmacological or genetic inhibition of FoxO on metabolism and myogenesis in TDP-43 and FUS-silenced myoblasts. We treated all the different models of myoblasts with the compound AS1842856 at 30 nM during proliferation and let them differentiate, adding the compound at the same concentration every 2 days for 8 days. At the selected concentration, this compound binds selectively to the dephosphorylated FoxO1, and to less extent dephosphorylated FoxO3, interfering with DNA interaction and thereby resulting in inhibition of FoxO transactivation.
# In addition, treatment with the AS1842856 inhibitor modifies the expression of some of the FoxO-regulated genes that are crucial for proper myogenic differentiation.
# [2] = system: primary myoblasts from patients with ALS; experiment: Myogenic capacity of primary myoblasts from patients with ALS; type: cell-based, human; conditions: 30 nM; primary myoblasts from sporadic and familial ALS patients
# From the text: (§1) We looked at preliminary links between the findings in genetically-induced myoblasts and features of myoblasts from patients with ALS. To this aim, we cultured primary myoblasts obtained from muscle biopsies of two patients with ALS (patient 1 is sporadic [sALS] and patient 2 is familial [fALS]) and one control. […] Changes in TDP-43 localization were accompanied by an altered subcellular distribution of FoxO1, as reflected by increased levels of FoxO1 and FoxO3 in nuclei (FIG. 6A,C) and enhanced nuclear-to-cytosolic ratio in both patients (FIG. 6C). Remarkably, nuclear localizations of TDP-43 and FoxO1 were inversely associated in patient 2 (FIG. 6D).
# To study whether these pathological features were linked to functional outcomes of ALS muscle, we studied the myogenic capacity of ALS myoblasts and the effect of FoxO inhibition.
# primary ALS myoblasts = experiment: Glycolytic flux (ECAR) of primary ALS myoblasts; type: cell-based, human
# From the text: as §1
# As expected, alterations of FoxO1 in ALS myoblasts were accompanied by aberrant glycolytic flux, as indicated by lower ECAR values after addition of glucose to the media (FIG. 6F).
# [3] = system: Drosophila flies with muscle-conditioned silencing of Caz or Tbph; experiment: Climbing (locomotor activity) test in flies with muscle-conditioned silencing of Caz or Tbph; type: in vivo, Drosophila melanogaster; conditions: 30 μM; Caz- and Tbph-silenced flies; more pronounced in Tbph lines
# From the text: FIG. 7. Foxo inhibition improves muscle function and lifespan in Drosophila flies with muscle-conditioned deficiency of TDP-43 or FUS. […] F, Caz or Tbph-silenced flies have reduced survival times, as indicated by Kaplan-Meier curves (left panel) and median lifespan (right panel) (n=100 flies per group). […] This effect was particularly noticeable in iCaz and iTbph^attp40) fly lines (n=100 flies per group). *p<0.05: **p<0.01, ***p<0.001.
# After knowing that FoxO inhibition provides benefits to muscle cells in vitro, we wanted to further test the effects of targeting FoxO factors on muscle function under the context of TDP-43 or FUS loss-of-function in vivo. To that purpose, we generated various Drosophilamodels with muscle-conditioned silencing of either Cabeza (Caz) or Tbph genes, which are orthologs of human FUS or TARDBP, respectively. […] Drosophila has only one ortholog for mammalian FoxO factors, which is called foxo. Although the affinity of AS1842856 for Drosophila foxo has never been tested, the fact that FoxO DNA-binding sites, with which the inhibitor interacts, are well conserved among species, including Drosophila melanogaster (FIG. 7B) provides enough rationale to test its efficacy in Drosophila models.
# [4] = system: Drosophila with motor neuron-specific (OK6 promoter) Tbph silencing; experiment: Locomotor activity (climbing) assay in motor neuron-specific Tbph/Caz knockdown flies; type: in vivo, Drosophila melanogaster; conditions: 30 μM, 20 days-old flies
# From the text: FIG. 9. FOXO1inh rescues (AS1842856) impaired climbing capacity induced by motor neuron-specific knockdown of ALS-causing ortholog genes in Drosophila melanogaster. Represented two different models of Tbph silence (silencing two different locus of Tbph gene) and one Caz (FUS ortholog) A) Locomotor activity of motor neuron specific (OK6 promoter) Tbph silencing Drosophila melanogaster using iTbph(p(KK08354)) plasmid. Generated genotypes; UAS-Dicer2-+-OK6-GAL4 (control) and UAS-Dicer2-iTbph^p(KK08354)-OK6-GAL4 (iTbph^p(KK08354)). B) Locomotor activity of motor neuron specific (OK6 promoter) Tbph silencing Drosophila melanogaster using iTbph(attP40) plasmid.; UAS-Dicer2-+-OK6-GAL4 (control) and UAS-Dicer2-iTbph^(attP40)-OK6-GAL4 (iTbph^(attP40)). C) Locomotor activity of motor neuron specific (OK6 promoter) Tbph silencing Drosophila melanogaster using iCaz plasmid.; UAS-Dicer2-+-OK6-GAL4 (control) and UAS-Dicer2-iCaz-OK6-GAL4 (iCaz). Assays were performed at 20 days-old flies and repeated 5 times each tube (5 flies/tube). Data are expressed as the percentage of flies passing for each group.
# Two-way ANOVA was performed together Bonferroni post-hoc multiple comparison (*p<0.05; **p<0.01; ***p<0.001) or T-test for two groups comparisons (*p<0.05; **p<0.01; ***p<0.001). Values are expressed as mean+SD.
# One of the most important features of ALS is motor neuron degeneration. […]
smiles,measurement,setting,value
CCn1cc(C(=O)O)c(=O)c2c(N)c(F)c(NC3CCCCC3)cc21 [AS1842856],"myogenic capacity (MYHC-positive myotubes, differentiation index)",[1]; FUS-silenced myoblasts,improved the myogenic capacity
same,"myogenic capacity (MYHC-positive myotubes, differentiation index)",[1]; TDP-43 silenced myoblasts,rescued the myogenic arrest
same,"myogenic capacity (MYHC-positive myotubes, differentiation index)",[1]; control myoblasts,little effects
same,myogenic abnormalities,[2],alleviated
same,basal glycolysis rate (ECAR after glucose),primary ALS myoblasts,corrected; also recorded: improved the basal glycolysis rate
same,muscle function (climbing activity),[3],strong benefits on muscle function
same,locomotor impairments in climbing assay,[4],rescues; also recorded: fully rescue locomotor impairments
